Test results from US20260124182A1, “NITAZOXANIDE FOR THE TREATMENT OF HEPATIC IMPAIRMENT” (GENFIT, priority 2022, published 2026).

Key:
[1] = Open-label multiple-dose PK, safety and tolerability study of NTZ 500 mg BID for 7 days in subjects with moderate or severe hepatic impairment vs normal hepatic function; conditions: for Cmax: Cmax GM; for AUC0-12 GM Ratio (Impaired/Control) / AUC0-t GM Ratio (Impaired/Control) / Cmax GM Ratio (Impaired/Control): steady state; for correlation coefficient AUC0-12 vs ALT / correlation coefficient AUC0-12 vs AST / correlation coefficient AUC0-12 vs Albumin / correlation coefficient AUC0-12 vs Bilirubin / correlation coefficient AUC0-12 vs INR / correlation coefficient Cmax vs ALT / correlation coefficient Cmax vs AST / correlation coefficient Cmax vs Albumin / correlation coefficient Cmax vs Bilirubin / correlation coefficient Cmax vs INR: highest among Pearson (P) and Spearman (S), natural (NS) and log (LS) scales, marker at screening
Description: The study design was an open-label, nonrandomized, 2-center, multiple-dose, parallel-group study to evaluate the PK as well as the safety and tolerability of NTZ 500 mg BID administration for 7 days in males and females patients with moderate and severe hepatic impairment as compared to matched control healthy males and females patients with normal hepatic function.
The objective was to assess the effect of hepatic impairment on the PK of tizoxanide (TZ; NTZ active metabolite), following repeated oral dose administration of NTZ 500 mg BID for 7 days in subjects with moderate or severe hepatic impairment and subjects with normal hepatic function.
The following parameters used to measure the hepatic function were considered for the evaluation of the degree of hepatic impairment on NTZ PK: Child-Pugh (CP) score (*), serum albumin, serum total bilirubin, international normalized ratio (INR), aspartate aminotransferase (AST), alanine aminotransferase (ALT).
(*) For the control match healthy subject group, CP score was not calculated, and the analysis was limited to hepatic impaired patients.
Subjects were enrolled within the following groups based on their CP score at Screening: • Group 1: Normal hepatic function • Group 2: Moderate hepatic impairment (CP Class B) • Group 3: Severe hepatic impairment (CP Class C)
On Day 1, the study subjects took 500 mg NTZ (1 tablet) with 240 mL (8 fluid ounces) of water 30 minutes after the start of the standardized breakfast. No food was allowed for at least 4 h after each dose. Blood PK samples were taken at the following timepoints: pre-dose (completed in fasted state prior to the start of the standardized breakfast), T1h, T2h, T3h, T4h, T5h, T6h, T7h, T8h, T10h and T12h post-dose.
From Day 2 to Day 6, subjects received 500 mg of nitazoxanide (1 tablet) in the morning and in the evening for 6 consecutive days and on Day 7 the last dose was administered in the morning. Pre-dose blood PK sample was collected in fasted state prior to the start of the standardized breakfast each morning from Day 2 to Day 6.
On Day 7, blood PK samples were taken at the following timepoints: Pre-dose (completed in fasted state prior to the start of the standardized breakfast), T1h, T2h, T3h, T4h, T5h, T6h, T7h, T8h, T10h, T12h, T14h and T16h post-dose. PK samples at T18h, T24h and T48h post dose were taken respectively on D8 and D9.
The primary analysis was to assess the difference in the PK parameters (Cmax, AUC0-12 and AUC0-t) of total TZ after repeated oral administration of NTZ 500 mg BID for 7 days in subjects with moderate or severe hepatic impairment and subjects with normal hepatic function.
The secondary analysis was to determine the accumulation ratios on AUC0-12 and Cmax measured after a single (Day 1) and a 7-day repeated (BID) oral administrations.
The relationship between hepatic function markers (serum albumin, serum total bilirubin, INR, AST and ALT (obtained at screening)) and PK parameters (Cmax and AUC0-12) for TZ and TZ Glu (total and unbound) were investigated and evaluated using graphical and correlation techniques.
Both Pearson (supporting a linear trend) and Spearman correlation (supporting a monotonic trend) coefficients were calculated. The correlation coefficients (p) were used to measure appropriately the association for most possible relationship and only strong correlations (i.e. p≥0.75) would support further modeling.

[2] = test system: BDL+LPS-induced liver impairment rat model; test: Evaluation of NTZ efficacy on BDL+LPS-induced liver impairment in rats; type: in vivo, Sprague Dawley rats
Description: The objective of the study was to assess the efficacy of NTZ to prevent LPS-induced inflammation, hepatic dysfunction and brain edema in fibrotic rats that underwent BDL surgery. BDL surgery was performed on 30 Sprague Dawley rats (Janvier). After anesthesia, a median laparotomy was performed to expose the liver and duodenum. The main bile duct was identified and dissected. After that, the bile duct was ligated in two parts: a first ligation was made in the middle of the bile duct, and the second ligation was made above the entrance of the pancreatic duct. The bile duct was then cut in the middle, to avoid recanalization. Fourteen days after surgery, a blood sample was collected from the sublingual vein to measure markers of hepatic injury (serum aspartate aminotransferase (AST), total bile acids and bilirubin) to stratify the animals into treatment groups. […] Two unoperated animals were included in the study as healthy controls. […] Nine rats with BDL received phosphate buffer saline (PBS, Fisher Scientific, USA) instead of LPS to be used as BDL controls. The body weight and food intake were monitored twice a week all along the study. During the fibrosis induction phase, each animal was observed once a day for the monitoring of clinical signs. Observations include changes in the skin, fur, eyes, occurrence of secretions and excretions and autonomic activity (lachrymation, piloerection, unusual respiratory pattern). Changes in gait, posture, stereotypes (e.g. excessive grooming, repetitive circling) or bizarre behavior (self-mutilation, walking backward) are also monitored. Animals were euthanized in case of weight loss of more than 25% for more than 3 consecutive days, absence of food consumption, deterioration of the general condition or vocalization. After LPS administration, each animal was continuously observed (appearance of the animal-change in fur, skin color, the degree of activity, vigilance-response to a stimulus, opening of the eyelids, activity, gait and behaviour) during 7 hours in order to assess the degree of severity of the inflammatory response and pain. Treatment with NTZ 100 mg/kg or vehicle (1% carboxymethylcellulose ([…], Sigma-Aldrich), 0.1% tween 80 ([…], Sigma-Aldrich)) was administered by gavage 1 hour before LPS injection. For oral gavage, NTZ powder was dissolved in CMC 1%, Tween 80 0.1% at the concentration of 10 mg/ml in an amber glass bottle, homogenized with a polytron and sonicated 10 seconds at a power of 10%. NTZ was kept under magnetic stirring until the administration to the rats at 10 ml/kg. LPS solution was prepared under a microbiological safety cabinet, in order to have a sterile solution to inject to rats. The LPS solution was dissolved in phosphate buffer saline (PBS) at 0.5 μg/ml, aliquoted and frozen until the day of experiment. LPS was administered at 2 ml/kg to the rats. All surviving animals were euthanized 3 h after LPS injection for plasma and tissues analyses. At the end of the study, by plasma level of hepatic function markers and cytokines, and brain edema have been evaluated.

[3] = NTZ 100 mg/kg by gavage 1 hour before LPS, blood collected 3 hours after LPS
[4] = total TZ, all groups combined, listed as Total TZ
[5] = total TZ, Moderate (CP B) vs Control
[6] = total TZ, Severe (CP C) vs Control

With `CC(=O)Oc1ccccc1C(=O)Nc1ncc([N+](=O)[O-])s1` [NTZ, nitazoxanide] the “safety in patients with hepatic impairment” value ([1]; NTZ 500 mg BID for 7 days) was “safe”, the “brain edema: change of brain water content compared to the BDL condition” value ([2]; NTZ 100 mg/kg by gavage 1 hour before LPS, 3 h after LPS, p=0.006) was −111% and the “decrease of circulating IL-1β” value [2, 3] was 91%. The “decrease of circulating IL-6” value [2, 3] was 93%, the “decrease of circulating TNFα” value [2, 3] was 94% and the “percentage of liver fibrosis” value ([2]; NTZ 100 mg/kg by gavage 1 hour before LPS, euthanized 3 h after LPS, data not shown) was “Neither LPS nor NTZ treatment affected the percentage of liver fibrosis”. For the same molecule, the “LPS-induced alteration of plasma total bile acids, total bilirubin, albumin and GGT” value ([2]; NTZ 100 mg/kg by gavage 1 hour before LPS, plasma 3 h after LPS) was “tended to reduce the LPS-induced alteration of these markers”, the “reduction of plasma urea (LPS-induced renal impairment)” value ([2]; NTZ 100 mg/kg by gavage 1 hour before LPS, plasma 3 h after LPS, p=0.007) was 84% and the “reduction of plasma ASAT compared to the ACLF-Veh condition” value ([2]; NTZ 100 mg/kg by gavage 1 hour before LPS, plasma 3 h after LPS, p=0.01) was 100%. For the same molecule, the “reduction of plasma ALAT compared to the ACLF-Veh condition” value ([2]; NTZ 100 mg/kg by gavage 1 hour before LPS, plasma 3 h after LPS, p=0.03) was 101%, the “LPS-induced rise in ALT, change with NTZ” value ([2]; NTZ 100 mg/kg, conclusions) was −101% and the “LPS-induced rise in AST, change with NTZ” value ([2]; NTZ 100 mg/kg, conclusions) was −100%. The “LPS-induced rise in urea, change with NTZ” value ([2]; NTZ 100 mg/kg, conclusions) was −84% and the “brain edema: water content (in words)” value ([2]; NTZ 100 mg/kg, conclusions) was “totally restored the water content to the level of BDL and healthy rats”.

For `O=C(Nc1ncc([N+](=O)[O-])s1)c1ccccc1O` [TZ, tizoxanide], the “fraction of the dose recovered in urine over 12 h” value ([1]; Day 1 and Day 7, regardless of the group) was “less than 1%”, the Tmax ([1]; both, human, blood, oral, 500 mg) was 3.5 to 5 h and the AUC(0-t) ([1]; both, human, blood, oral, 500 mg, AUC0-12 GM, total TZ, all groups combined (Total), DAY 1, single 500 mg NTZ dose) was 115 µM·h. For the same molecule, the AUC(0-t) ([1]; both, human, blood, oral, 500 mg, AUC0-12 GM, total TZ, all groups combined (Total), DAY 7, NTZ 500 mg BID) was 183 µM·h, the AUC(0-t) ([1]; both, human, blood, oral, 500 mg, AUC0-12 GM, total TZ, steady state after NTZ 500 mg BID 7 days, Moderate (CP B)) was 145 µM·h and the AUC(0-t) ([1]; both, human, blood, oral, 500 mg, AUC0-12 GM, total TZ, steady state after NTZ 500 mg BID 7 days, Severe (CP C)) was 264 µM·h. For the same molecule, the AUC(0-t) ([1]; both, human, blood, oral, 500 mg, AUC0-t GM, total TZ, steady state after NTZ 500 mg BID 7 days, Control group (normal hepatic function)) was 165 µM·h, the AUC(0-t) ([1]; both, human, blood, oral, 500 mg, AUC0-t GM, total TZ, steady state after NTZ 500 mg BID 7 days, Moderate (CP B)) was 150 µM·h and the AUC(0-t) ([1]; both, human, blood, oral, 500 mg, AUC0-t GM, total TZ, steady state after NTZ 500 mg BID 7 days, Severe (CP C)) was 297 µM·h. The Cmax ([1]; both, human, blood, oral, 500 mg, total TZ, all groups combined (Total), DAY 1, single 500 mg NTZ dose) was 24.8 µM, the Cmax ([1]; both, human, blood, oral, 500 mg, total TZ, all groups combined (Total), DAY 7, NTZ 500 mg BID) was 34.7 µM and the Cmax ([1]; both, human, blood, oral, 500 mg, total TZ, steady state after NTZ 500 mg BID 7 days, Control group (normal hepatic function)) was 35.3 µM. It also gave a Cmax ([1]; both, human, blood, oral, 500 mg, total TZ, steady state after NTZ 500 mg BID 7 days, Moderate (CP B)) of 28.2 µM, a Cmax ([1]; both, human, blood, oral, 500 mg, total TZ, steady state after NTZ 500 mg BID 7 days, Severe (CP C)) of 42 µM and a half-life ([1]; both, human, blood, oral, 500 mg, GM t1/2, Day 1) of roughly 2 h. For the same molecule, the half-life ([1]; both, human, blood, oral, 500 mg, GM t1/2, Day 7, severe impairment group) was 4 h, the AUC(0-t) ([1]; both, human, in vivo, oral, 500 mg, AUC0-12 GM, total TZ, steady state after NTZ 500 mg BID 7 days, Control group (normal hepatic function)) was 162 µM·h and the CL renal ([1]; both, human, urine, oral, 500 mg) was 0.0333 to 0.5 mL/min. For the same molecule, the “AUC0-12 accumulation GM Ratio (Day 7/Day 1)” value [1, 4] was 1.5980, the “Cmax accumulation GM Ratio (Day 7/Day 1)” value [1, 4] was 1.3993 and the “Cmax accumulation GM Ratio (Day 7/Day 1)” value ([1]; total TZ, all groups combined, listed as total TZ) was “around 1.4”. The “AUC0-12 GM Ratio (Impaired/Control)” value [1, 5] was 0.8960, the “AUC0-t GM Ratio (Impaired/Control)” value [1, 5] was 0.9064 and the “Cmax GM Ratio (Impaired/Control)” value [1, 5] was 0.8008. The “AUC0-12 GM Ratio (Impaired/Control)” value [1, 6] was 1.6353, the “AUC0-t GM Ratio (Impaired/Control)” value [1, 6] was 1.7940 and the “Cmax GM Ratio (Impaired/Control)” value ([1]; total TZ, Severe (CP C) vs Control, listed as Total TZ) was 1.1921. The “Cmax GM Ratio (Impaired/Control)” value ([1]; total TZ, Severe (CP C) vs Control, listed as total TZ) was 1.19, the “correlation coefficient AUC0-12 vs ALT” value ([1]; total analyte) was “P (LS): −0.07” and the “correlation coefficient AUC0-12 vs AST” value ([1]; total analyte) was “P (NS): 0.17”. For the same molecule, the “correlation coefficient AUC0-12 vs Albumin” value ([1]; total analyte) was “P (NS): −0.4”, the “correlation coefficient AUC0-12 vs Bilirubin” value ([1]; total analyte) was “P (NS): 0.43” and the “correlation coefficient AUC0-12 vs INR” value ([1]; total analyte) was “P (NS): 0.46”. For the same molecule, the “correlation coefficient Cmax vs ALT” value ([1]; total analyte) was “P (LS): −0.17”, the “correlation coefficient Cmax vs AST” value ([1]; total analyte) was “P (LS): −0.05” and the “correlation coefficient Cmax vs Albumin” value ([1]; total analyte) was “P (NS): −0.25”. The “correlation coefficient Cmax vs Bilirubin” value ([1]; total analyte) was “P (NS): 0.47”, the “correlation coefficient Cmax vs INR” value ([1]; total analyte) was “P (NS): 0.46” and the “correlation coefficient AUC0-12 vs ALT” value ([1]; unbound (u-) analyte) was “P (LS): −0.06”. For the same molecule, the “correlation coefficient AUC0-12 vs AST” value ([1]; unbound (u-) analyte) was “P (NS): 0.15”, the “correlation coefficient AUC0-12 vs Albumin” value ([1]; unbound (u-) analyte) was “P (NS): −0.37” and the “correlation coefficient AUC0-12 vs Bilirubin” value ([1]; unbound (u-) analyte) was “P (NS): 0.47”. For the same molecule, the “correlation coefficient AUC0-12 vs INR” value ([1]; unbound (u-) analyte) was “P (NS): 0.5”, the “correlation coefficient Cmax vs ALT” value ([1]; unbound (u-) analyte) was “P (LS): −0.15” and the “correlation coefficient Cmax vs AST” value ([1]; unbound (u-) analyte) was “S (NS): −0.09”. For the same molecule, the “correlation coefficient Cmax vs Albumin” value ([1]; unbound (u-) analyte) was “P (NS): −0.24”, the “correlation coefficient Cmax vs INR” value ([1]; unbound (u-) analyte) was “P (NS): 0.49” and the “correlation coefficient Cmax vs Bilirubin” value ([1]; unbound (u-) analyte, listed as u-Tizoxanide) was “P (NS): 0.51”. The “correlation coefficient Cmax vs Bilirubin” value ([1]; unbound (u-) analyte, listed as unbound TZ) was 0.51.
